Assay results: the NIST ThermoML archive (doi:10.1021/je8001305)
Numbers after ± are expanded uncertainties.

Assay: xn = mol fraction of the nth substance listed
Details: Liquid, Vibrating tube method

Compound: CC(C)O [propan-2-ol] + O
- mass density (325.1 K, 4598.7 kPa, x1 = 0.2483): 877.08 ± 0.89 kg/m3
- mass density (325.1 K, 5089.3 kPa, x1 = 0.2483): 877.36 ± 0.89 kg/m3
- mass density (325.1 K, 5564.2 kPa, x1 = 0.2483): 877.68 ± 0.89 kg/m3
- mass density (325.1 K, 5954.2 kPa, x1 = 0.2483): 877.93 ± 0.89 kg/m3
- mass density (325.1 K, 6394.3 kPa, x1 = 0.2483): 878.21 ± 0.89 kg/m3
- mass density (325.1 K, 6808.5 kPa, x1 = 0.2483): 878.48 ± 0.89 kg/m3
- mass density (325.1 K, 7288 kPa, x1 = 0.2483): 878.8 ± 0.89 kg/m3
- mass density (325.1 K, 7782.7 kPa, x1 = 0.2483): 879.08 ± 0.89 kg/m3
- mass density (325.1 K, 8079.1 kPa, x1 = 0.2483): 879.34 ± 0.89 kg/m3
- mass density (325.1 K, 8438.9 kPa, x1 = 0.2483): 879.63 ± 0.89 kg/m3
- mass density (325.1 K, 8828.5 kPa, x1 = 0.2483): 879.87 ± 0.89 kg/m3
- mass density (325.1 K, 9358.9 kPa, x1 = 0.2483): 880.18 ± 0.89 kg/m3
- mass density (325.13 K, 29.2 kPa, x1 = 0.7258): 782.68 ± 0.79 kg/m3
- mass density (325.13 K, 83 kPa, x1 = 0.7258): 782.69 ± 0.79 kg/m3
- mass density (325.13 K, 268.1 kPa, x1 = 0.7258): 782.93 ± 0.79 kg/m3
- mass density (325.13 K, 528.3 kPa, x1 = 0.7258): 783.18 ± 0.79 kg/m3
- mass density (325.13 K, 873.7 kPa, x1 = 0.7258): 783.5 ± 0.79 kg/m3
- mass density (325.13 K, 1298.6 kPa, x1 = 0.7258): 783.92 ± 0.8 kg/m3
- mass density (325.13 K, 1709.2 kPa, x1 = 0.7258): 784.33 ± 0.8 kg/m3
- mass density (325.13 K, 2200.7 kPa, x1 = 0.7258): 784.79 ± 0.8 kg/m3
- mass density (325.13 K, 2652.1 kPa, x1 = 0.7258): 785.22 ± 0.8 kg/m3
- mass density (325.13 K, 3101.7 kPa, x1 = 0.7258): 785.67 ± 0.8 kg/m3
- mass density (325.13 K, 3550.6 kPa, x1 = 0.7258): 786.11 ± 0.8 kg/m3
- mass density (325.13 K, 4068.3 kPa, x1 = 0.7258): 786.61 ± 0.8 kg/m3
- mass density (325.13 K, 4579.4 kPa, x1 = 0.7258): 787.07 ± 0.8 kg/m3
- mass density (325.13 K, 5021.7 kPa, x1 = 0.7258): 787.49 ± 0.8 kg/m3
- mass density (325.13 K, 5496.1 kPa, x1 = 0.7258): 787.93 ± 0.8 kg/m3
- mass density (325.13 K, 5972.3 kPa, x1 = 0.7258): 788.38 ± 0.81 kg/m3
- mass density (325.13 K, 6450.8 kPa, x1 = 0.7258): 788.82 ± 0.81 kg/m3
- mass density (325.13 K, 6903 kPa, x1 = 0.7258): 789.24 ± 0.81 kg/m3
- mass density (325.13 K, 7392 kPa, x1 = 0.7258): 789.7 ± 0.81 kg/m3
- mass density (325.13 K, 7861.1 kPa, x1 = 0.7258): 790.11 ± 0.81 kg/m3
- mass density (325.13 K, 8322.8 kPa, x1 = 0.7258): 790.52 ± 0.81 kg/m3
- mass density (325.13 K, 8813.9 kPa, x1 = 0.7258): 790.98 ± 0.81 kg/m3
- mass density (325.13 K, 9287.4 kPa, x1 = 0.7258): 791.41 ± 0.81 kg/m3
- mass density (325.13 K, 9829.7 kPa, x1 = 0.7258): 791.93 ± 0.81 kg/m3
- mass density (350.15 K, 88 kPa, x1 = 0.4939): 789.82 ± 0.8 kg/m3
- mass density (350.15 K, 161.7 kPa, x1 = 0.4939): 789.8 ± 0.8 kg/m3
- mass density (350.15 K, 387.8 kPa, x1 = 0.4939): 790.1 ± 0.8 kg/m3
- mass density (350.15 K, 695.2 kPa, x1 = 0.4939): 790.45 ± 0.8 kg/m3
- mass density (350.15 K, 1020.8 kPa, x1 = 0.4939): 790.78 ± 0.8 kg/m3
- mass density (350.15 K, 1400.1 kPa, x1 = 0.4939): 791.25 ± 0.8 kg/m3
- mass density (350.15 K, 1795.8 kPa, x1 = 0.4939): 791.61 ± 0.8 kg/m3
- mass density (350.15 K, 2147.1 kPa, x1 = 0.4939): 791.96 ± 0.81 kg/m3
- mass density (350.15 K, 2497.9 kPa, x1 = 0.4939): 792.31 ± 0.81 kg/m3
- mass density (350.15 K, 2892.7 kPa, x1 = 0.4939): 792.74 ± 0.81 kg/m3
- mass density (350.15 K, 3277.9 kPa, x1 = 0.4939): 793.12 ± 0.81 kg/m3
- mass density (350.15 K, 3611.5 kPa, x1 = 0.4939): 793.5 ± 0.81 kg/m3
- mass density (350.15 K, 4087.3 kPa, x1 = 0.4939): 794.01 ± 0.81 kg/m3
- mass density (350.15 K, 4606.7 kPa, x1 = 0.4939): 794.49 ± 0.81 kg/m3
- mass density (350.15 K, 4955.2 kPa, x1 = 0.4939): 794.83 ± 0.81 kg/m3
- mass density (350.15 K, 5376 kPa, x1 = 0.4939): 795.26 ± 0.81 kg/m3
- mass density (350.15 K, 5837.6 kPa, x1 = 0.4939): 795.69 ± 0.81 kg/m3
- mass density (350.15 K, 6296.4 kPa, x1 = 0.4939): 796.18 ± 0.81 kg/m3
- mass density (350.15 K, 6886.6 kPa, x1 = 0.4939): 796.77 ± 0.82 kg/m3
- mass density (350.15 K, 7400.8 kPa, x1 = 0.4939): 797.28 ± 0.82 kg/m3
- mass density (350.15 K, 7935.6 kPa, x1 = 0.4939): 797.73 ± 0.82 kg/m3
- mass density (350.15 K, 8400.3 kPa, x1 = 0.4939): 798.24 ± 0.82 kg/m3
- mass density (350.15 K, 9000.6 kPa, x1 = 0.4939): 798.68 ± 0.82 kg/m3
- mass density (350.15 K, 9521.2 kPa, x1 = 0.4939): 799.18 ± 0.82 kg/m3
- mass density (350.18 K, 84.4 kPa, x1 = 0.2483): 850.19 ± 0.86 kg/m3
- mass density (350.18 K, 220 kPa, x1 = 0.2483): 850.33 ± 0.86 kg/m3
- mass density (350.18 K, 511 kPa, x1 = 0.2483): 850.54 ± 0.86 kg/m3
- mass density (350.18 K, 938.8 kPa, x1 = 0.2483): 850.91 ± 0.86 kg/m3
- mass density (350.18 K, 1369.7 kPa, x1 = 0.2483): 851.29 ± 0.86 kg/m3
- mass density (350.18 K, 2066.9 kPa, x1 = 0.2483): 851.75 ± 0.86 kg/m3
- mass density (350.18 K, 2381 kPa, x1 = 0.2483): 852.09 ± 0.86 kg/m3
- mass density (350.18 K, 2718.1 kPa, x1 = 0.2483): 852.39 ± 0.86 kg/m3
- mass density (350.18 K, 3107.7 kPa, x1 = 0.2483): 852.73 ± 0.86 kg/m3
- mass density (350.18 K, 3464.8 kPa, x1 = 0.2483): 853.04 ± 0.87 kg/m3
- mass density (350.18 K, 3957.6 kPa, x1 = 0.2483): 853.37 ± 0.87 kg/m3
- mass density (350.18 K, 4346 kPa, x1 = 0.2483): 853.71 ± 0.87 kg/m3
- mass density (350.18 K, 4781.1 kPa, x1 = 0.2483): 854.06 ± 0.87 kg/m3
- mass density (350.18 K, 5267.8 kPa, x1 = 0.2483): 854.49 ± 0.87 kg/m3
- mass density (350.18 K, 5743.8 kPa, x1 = 0.2483): 854.83 ± 0.87 kg/m3
- mass density (350.18 K, 6196.4 kPa, x1 = 0.2483): 855.2 ± 0.87 kg/m3
- mass density (350.18 K, 6734.2 kPa, x1 = 0.2483): 855.63 ± 0.87 kg/m3
- mass density (350.18 K, 7374.9 kPa, x1 = 0.2483): 856.07 ± 0.87 kg/m3
- mass density (350.18 K, 7999 kPa, x1 = 0.2483): 856.54 ± 0.87 kg/m3
- mass density (350.18 K, 8630.3 kPa, x1 = 0.2483): 857.02 ± 0.87 kg/m3
- mass density (350.18 K, 9298.3 kPa, x1 = 0.2483): 857.54 ± 0.87 kg/m3
- mass density (351.14 K, 93.2 kPa, x1 = 0.7258): 756.9 ± 0.77 kg/m3
- mass density (351.14 K, 241.5 kPa, x1 = 0.7258): 757.15 ± 0.77 kg/m3
- mass density (351.14 K, 444.5 kPa, x1 = 0.7258): 757.34 ± 0.77 kg/m3
- mass density (351.14 K, 822.4 kPa, x1 = 0.7258): 757.8 ± 0.77 kg/m3
- mass density (351.14 K, 1271.6 kPa, x1 = 0.7258): 758.33 ± 0.77 kg/m3
- mass density (351.14 K, 1673.9 kPa, x1 = 0.7258): 758.75 ± 0.77 kg/m3
- mass density (351.14 K, 2070.5 kPa, x1 = 0.7258): 759.26 ± 0.77 kg/m3
- mass density (351.14 K, 2461.1 kPa, x1 = 0.7258): 759.66 ± 0.77 kg/m3
- mass density (351.14 K, 2863.4 kPa, x1 = 0.7258): 760.12 ± 0.78 kg/m3
- mass density (351.14 K, 3280.9 kPa, x1 = 0.7258): 760.61 ± 0.78 kg/m3
- mass density (351.14 K, 4252.5 kPa, x1 = 0.7258): 761.65 ± 0.78 kg/m3
- mass density (351.14 K, 4626.4 kPa, x1 = 0.7258): 762.11 ± 0.78 kg/m3
- mass density (351.14 K, 5075.9 kPa, x1 = 0.7258): 762.61 ± 0.78 kg/m3
- mass density (351.14 K, 5558.5 kPa, x1 = 0.7258): 763.09 ± 0.78 kg/m3
- mass density (351.14 K, 5976.2 kPa, x1 = 0.7258): 763.59 ± 0.78 kg/m3
- mass density (351.14 K, 6439.8 kPa, x1 = 0.7258): 764.08 ± 0.79 kg/m3
- mass density (351.14 K, 6882.2 kPa, x1 = 0.7258): 764.57 ± 0.79 kg/m3
- mass density (351.14 K, 7348.6 kPa, x1 = 0.7258): 765.1 ± 0.79 kg/m3
- mass density (351.14 K, 7809.3 kPa, x1 = 0.7258): 765.6 ± 0.79 kg/m3
- mass density (351.14 K, 8254 kPa, x1 = 0.7258): 766.09 ± 0.79 kg/m3
- mass density (351.14 K, 8720.2 kPa, x1 = 0.7258): 766.63 ± 0.79 kg/m3
- mass density (351.14 K, 9221.3 kPa, x1 = 0.7258): 767.15 ± 0.79 kg/m3
- mass density (351.14 K, 9714.8 kPa, x1 = 0.7258): 767.73 ± 0.79 kg/m3
- mass density (351.14 K, 10240 kPa, x1 = 0.7258): 768.31 ± 0.8 kg/m3
